Experimental data reported in patent publication US11697648B2, “Fused pyrimidine pyridinone compounds as JAK inhibitors” (THERAVANCE BIOPHARMA R&D IP, LLC, priority 2019, dated 2023).

Key:
JAK1 = JAK1 (Homo sapiens (Human), UniProt P23458); test: Biochemical JAK1 kinase assay (LanthaScreen)
Outline: (§1)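 GST-JAK + GFP-STAT1 peptide, HEPES pH 7.5/MgCl2/EGTA/Brij-35 buffer; cpd preincubation 1 h RT; ATP start, 1 h RT; stop with 10 mM EDTA + 2 nM Tb-anti-pSTAT1; TR-FRET 520/495. 4-parameter IC50 → pKi (Cheng-Prusoff).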

Caco-2 cell monolayers = test: Caco-2 permeation assay; type: in vitro ADME; conditions: 5 μM, A-B direction, with Verapamil (25 μM)
Outline: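 Compounds tested at 5 μM in duplicate across Caco-2 monolayers, apical-to-basolateral, with 25 μM verapamil to block P-gp, at 37° C., 5% CO2. Apical and basal samples taken at 0 and 120 min, analysed by LC-MS/MS; Papp (cm/sec) calculated as dQ/(dt×Area×concentration).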

[1] = Colon and plasma mouse pharmacokinetics; type: in vivo; conditions: mouse, colon tissue / plasma; male Balb/c mice, 10 mg/kg PO; ratio of the colon AUC to the plasma AUC
Outline: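 Male Balb/c mice given 10 mg/kg PO in 1% HPMC + 0.1% Tween-80; plasma, colon tissue and colon contents taken at 0.5, 2 and 6 h, quantified by LC/MS/MS. Non-compartmental analysis on means of 2 animals/time point; colon:plasma ratio taken as colon AUC over plasma AUC.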

Tyk2 = Tyk2 (Homo sapiens (Human), UniProt P29597); test: Biochemical Tyk2 kinase assay (LanthaScreen)
Outline: as §1

Chain of JAK1 (P23458 whole entry): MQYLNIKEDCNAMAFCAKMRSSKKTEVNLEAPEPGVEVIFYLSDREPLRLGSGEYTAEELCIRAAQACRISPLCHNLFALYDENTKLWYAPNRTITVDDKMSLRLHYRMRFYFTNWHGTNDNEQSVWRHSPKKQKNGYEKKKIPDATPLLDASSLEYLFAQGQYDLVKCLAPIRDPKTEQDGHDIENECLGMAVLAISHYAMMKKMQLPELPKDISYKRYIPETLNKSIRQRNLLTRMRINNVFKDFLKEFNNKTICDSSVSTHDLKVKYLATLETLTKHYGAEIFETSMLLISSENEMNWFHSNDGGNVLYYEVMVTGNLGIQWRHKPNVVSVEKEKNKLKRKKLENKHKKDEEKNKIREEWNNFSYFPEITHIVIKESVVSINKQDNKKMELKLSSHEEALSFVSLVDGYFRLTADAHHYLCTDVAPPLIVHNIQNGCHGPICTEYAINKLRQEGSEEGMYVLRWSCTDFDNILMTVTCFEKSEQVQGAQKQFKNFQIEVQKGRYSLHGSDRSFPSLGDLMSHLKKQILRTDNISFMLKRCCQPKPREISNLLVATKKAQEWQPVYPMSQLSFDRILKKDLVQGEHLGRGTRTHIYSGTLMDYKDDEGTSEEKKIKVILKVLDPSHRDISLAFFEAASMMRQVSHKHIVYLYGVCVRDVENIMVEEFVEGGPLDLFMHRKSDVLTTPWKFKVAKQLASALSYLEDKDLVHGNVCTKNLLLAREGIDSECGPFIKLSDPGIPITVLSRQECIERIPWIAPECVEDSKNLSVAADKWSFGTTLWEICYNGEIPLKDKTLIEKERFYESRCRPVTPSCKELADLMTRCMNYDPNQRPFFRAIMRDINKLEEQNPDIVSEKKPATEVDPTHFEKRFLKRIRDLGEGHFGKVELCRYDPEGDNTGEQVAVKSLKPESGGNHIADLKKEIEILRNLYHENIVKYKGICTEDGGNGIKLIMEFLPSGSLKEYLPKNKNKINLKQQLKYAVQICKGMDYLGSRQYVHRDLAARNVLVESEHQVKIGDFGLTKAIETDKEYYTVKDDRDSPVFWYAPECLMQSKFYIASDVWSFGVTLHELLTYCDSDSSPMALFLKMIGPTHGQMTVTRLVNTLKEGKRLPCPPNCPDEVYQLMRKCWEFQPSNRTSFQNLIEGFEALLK
Chain of Tyk2 (P29597 whole entry): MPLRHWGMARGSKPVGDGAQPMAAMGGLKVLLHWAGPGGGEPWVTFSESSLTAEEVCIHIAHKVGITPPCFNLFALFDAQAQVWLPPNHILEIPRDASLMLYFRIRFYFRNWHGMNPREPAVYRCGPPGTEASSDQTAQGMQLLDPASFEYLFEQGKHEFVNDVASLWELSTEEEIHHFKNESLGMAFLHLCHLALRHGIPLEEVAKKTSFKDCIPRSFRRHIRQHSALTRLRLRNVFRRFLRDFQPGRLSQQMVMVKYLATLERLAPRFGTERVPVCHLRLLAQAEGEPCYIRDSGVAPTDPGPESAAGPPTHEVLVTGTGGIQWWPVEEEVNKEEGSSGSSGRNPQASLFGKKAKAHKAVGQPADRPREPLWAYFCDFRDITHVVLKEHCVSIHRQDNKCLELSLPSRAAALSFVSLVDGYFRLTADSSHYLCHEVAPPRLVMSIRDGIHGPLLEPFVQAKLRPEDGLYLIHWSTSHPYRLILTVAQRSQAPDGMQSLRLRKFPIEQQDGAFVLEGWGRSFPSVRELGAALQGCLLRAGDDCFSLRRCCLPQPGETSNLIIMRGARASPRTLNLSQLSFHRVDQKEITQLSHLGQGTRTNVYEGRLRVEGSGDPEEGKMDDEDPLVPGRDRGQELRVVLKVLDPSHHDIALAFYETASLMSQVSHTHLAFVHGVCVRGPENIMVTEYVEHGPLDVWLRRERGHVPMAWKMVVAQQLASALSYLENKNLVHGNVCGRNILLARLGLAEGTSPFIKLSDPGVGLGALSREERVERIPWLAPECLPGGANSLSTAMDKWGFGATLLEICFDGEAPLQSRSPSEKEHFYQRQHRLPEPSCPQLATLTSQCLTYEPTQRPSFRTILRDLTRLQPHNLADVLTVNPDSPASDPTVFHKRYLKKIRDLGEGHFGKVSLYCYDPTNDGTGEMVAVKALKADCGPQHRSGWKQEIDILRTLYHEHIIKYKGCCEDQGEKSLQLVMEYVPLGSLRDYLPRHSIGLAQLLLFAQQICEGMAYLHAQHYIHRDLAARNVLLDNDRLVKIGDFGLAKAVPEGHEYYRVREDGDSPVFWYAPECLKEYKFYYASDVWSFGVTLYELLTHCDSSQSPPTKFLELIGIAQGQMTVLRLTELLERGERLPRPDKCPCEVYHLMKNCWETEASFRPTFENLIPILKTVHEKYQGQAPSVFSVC

Compound	JAK 1 (pKi) (JAK1)	Caco Kp (Caco-2 cell monolayers)	Kp [1]	Tyk 2 (pKi) (Tyk2)
C=CC(=O)N1CCN(CCn2c(=O)ccc3cnc(Nc4ccc(N5CCN(C)CC5)cc4)nc32)CC1 [Example 1, 8-(2-(4-acryloylpiperazin-1-yl)ethyl)-2-((4-(4-methylpiperazin-1-yl)phenyl)amino)pyrido[2,3-d]pyrimidin-7(8H)-one]	E (E represents a pKi value of 7 or below (Ki of 100 nM or above))	B (B represents a value between 5×10^−6 and 10×10^−6 cm/sec)	> 1000	E (E represents a pKi value of 7 or below (Ki of 100 nM or above))
C=CC(=O)N1CC(CCn2c(=O)ccc3cnc(Nc4ccc(N5CCN(C(C)=O)CC5)cc4)nc32)C1 [Example 2, 2-((4-(4-acetylpiperazin-1-yl)phenyl)amino)-8-(2-(1-acryloylazetidin-3-yl)ethyl)pyrido[2,3-d]pyrimidin-7(8H)-one]	E (E represents a pKi value of 7 or below (Ki of 100 nM or above))	A (A represents a value below 5×10^−6 cm/sec)	> 100	E (E represents a pKi value of 7 or below (Ki of 100 nM or above))
C=CC(=O)N1CCN(CCn2c(=O)ccc3cnc(Nc4ccc(N5CCN(C(=O)CCSC)CC5)cc4)nc32)CC1 [Example 4, 8-(2-(4-acryloylpiperazin-1-yl)ethyl)-2-((4-(4-(3-(methylthio)propanoyl)piperazin-1-yl)phenyl)amino)pyrido[2,3-d]pyrimidin-7(8H)-one]	E (E represents a pKi value of 7 or below (Ki of 100 nM or above))	A (A represents a value below 5×10^−6 cm/sec)	> 1000	E (E represents a pKi value of 7 or below (Ki of 100 nM or above))
C=CC(=O)N1CC(CCn2c(=O)ccc3cnc(Nc4cccc(CN5CCN(C(=O)N(C)C)CC5)c4)nc32)C1 [Example 5, 4-(3-((8-(2-(1-acryloylazetidin-3-yl)ethyl)-7-oxo-7,8-dihydropyrido[2,3-d]pyrimidin-2-yl)amino)benzyl)-N,N-dimethylpiperazine-1-carboxamide]	E (E represents a pKi value of 7 or below (Ki of 100 nM or above))	A (A represents a value below 5×10^−6 cm/sec)	> 100	E (E represents a pKi value of 7 or below (Ki of 100 nM or above))
C=CC(=O)N1CC(CCn2c(=O)ccc3cnc(Nc4cccc(N5CCN(C(=O)CCSC)CC5)c4)nc32)C1 [Example 7, 8-(2-(1-acryloylazetidin-3-yl)ethyl)-2-((3-(4-(3-(methylthio)propanoyl)piperazin-1-yl)phenyl)amino)pyrido[2,3-d]pyrimidin-7(8H)-one]	E (E represents a pKi value of 7 or below (Ki of 100 nM or above))	B (B represents a value between 5×10^−6 and 10×10^−6 cm/sec)	> 100	E (E represents a pKi value of 7 or below (Ki of 100 nM or above))
C=CC(=O)N1CCN(CCn2c(=O)ccc3cnc(Nc4cnn(C)c4)nc32)[C@@H](CC)C1 [Example 12, (S)-8-(2-(4-acryloyl-2-ethylpiperazin-1-yl)ethyl)-2-((1-methyl-1H-pyrazol-4-yl)amino)pyrido[2,3-d]pyrimidin-7(8H)-one]	E (E represents a pKi value of 7 or below (Ki of 100 nM or above))	B (B represents a value between 5×10^−6 and 10×10^−6 cm/sec)	> 50	E (E represents a pKi value of 7 or below (Ki of 100 nM or above))
C=CC(=O)N1CC(CCn2c(=O)ccc3cnc(Nc4ccc(N5CCN(C(=O)CSC)CC5)cc4)nc32)C1 [Example 13, 8-(2-(1-acryloylazetidin-3-yl)ethyl)-2-((4-(4-(2-(methylthio)acetyl)piperazin-1-yl)phenyl)amino)pyrido[2,3-d]pyrimidin-7(8H)-one]	E (E represents a pKi value of 7 or below (Ki of 100 nM or above))	A (A represents a value below 5×10^−6 cm/sec)	> 1000	E (E represents a pKi value of 7 or below (Ki of 100 nM or above))
